Laboratory results reported in patent US4100276A, “Fusidic acid derivatives” (priority 1975, dated 1978).
In brackets after ≈: the same amount, converted by molar mass. Entries after “also recorded” stand apart in the source; their conditions may differ. Counter-ions that a name gives are not always drawn. Like-named read-outs stand apart in the source and are kept apart here.

Key:
[1] = test system: Streptococcus pyogenes Leo EC; test: In vitro activity, concentration required for 50% inhibition (Table A); type: cell-based; details: Streptococcus pyogenes, read-out: Concentration required for 50% inhibition (IC50)
[2] = test system: Staphylococcus aureus; test: In vitro effect of combination with dihydro-fusidic acid, viable counts (Example 46); type: cell-based; details: tubes a, b 10 μg/ml, tube c 5 + 5 μg/ml
Experimental: In vitro-effect of the combination of dihydro-fusidic acid and 3α,11α-dihydroxy-16β-phenylthio-fusida-13(17),24-dien-21- oic acid
To three tubes containing NIH broth was added:
a. The sodium salt of dihydro-fusidic acid (10 μg/ml).
b. The sodium salt of 3α,11α-dihydroxy-16-phenylthiofusida-13(17),24-dien-21-oic acid (10 μg/ml).
c. A mixture of the sodium salts of dihydro-fusidic acid (5 μg/ml) and 3α,11α-dihydroxy-16-phenylthiofusida-13(17),24-dien-21-oic acid (5 μg/ml).
The tubes were inoculated with Staphylococcus aureus to give 5.2 × 10^5 organisms per ml, incubated at 37° C for 96 hours, and the viable counts were determined.
(§1) A fourth tube was treated similarly without addition of any of the antibiotics and used as a control: […]

[3] = test system: Staph. aureus, Leo CC178H2 (fusidic acid resistant strain); test: In vitro activity, concentration required for 50% inhibition (Table A); type: cell-based; details: Staphylococcus aureus, read-out: Concentration required for 50% inhibition (IC50)
[4] = test system: Bacteroides fragilis, Leo JA2; test: as above; type: cell-based; details: Bacteroides fragilis, LEOJA2, read-out: Concentration required for 50% inhibition (IC50)
[5] = test system: Streptococcus sp. Leo EG2; test: as above; type: cell-based; details: Streptococcus, read-out: Concentration required for 50% inhibition (IC50)
[6] = test system: Streptococcus pyogenes; test: In vitro bactericidal effect, viable counts (Example 44); type: cell-based; details: 10 μg/ml, NIH broth, 37° C; for Viable count after 0 hr: 0 hr (inoculum)
Experimental: In vitro bactericidal effect of 3α,11α-dihydroxy-16β-phenylthiofusida-13(17),24-dien-21-oic acid compared to that of fusidic acid […]
To two tubes containing NIH broth was added: a. The sodium salt of 3α,11α-dihydroxy-16β-phenylthiofusida-13(17),24-dien-21-oic acid (10 μg/ml) […]
b. The sodium salt of fusidic acid (10 μg/ml)
The tubes were inoculated with Streptococcus pyogenes to give 9.2×10^4 organisms per ml, incubated at 37° C, and the viable counts were determined at intervals.
A third tube was treated similarly without addition of any of the antibiotics and used as a control: […]

[7] = test system: Corynebact. acnes Leo FN; test: In vitro activity, concentration required for 50% inhibition (Table A); type: cell-based, Corynebacterium acnes; details: Cutibacterium acnes, read-out: Concentration required for 50% inhibition (IC50)
[8] = test system: Staph. aureus Leo CJ145; test: as above; type: cell-based; details: Staphylococcus aureus, LEOCJ145, read-out: Concentration required for 50% inhibition (IC50)
[9] = test system: Staphylococcus aureus Leo CC178B; test: as above; type: cell-based; details: Staphylococcus aureus, LEOCC178B, read-out: Concentration required for 50% inhibition (IC50)
[10] = test system: Staph. aureus (Leo CC 178B), fusidic acid sensitive strain; test: microbe, parasite or virus in culture; type: cell-based; details: for IC50: Staphylococcus aureus
Experimental: Prevention of development of resistance against fusidic acid as a result of treating Staph. aureus with the sodium salt of 3α,11α-dihydroxy-16β-isopropylthiofusida-13(17),24-dien-21-oic acid
After a 48 hours pretreatment of a fusidic acid sensitive strain of Staph. aureus (Leo CC 178B) with subinhibitory concentrations of fusidic acid or the compound of Example 9. The sensitivities of the pretreated cultures and of the original strain against the two compounds were determined. The determinations were made by serial dilutions in NIH-broth, inoculum size 2.10^5 organisms/ml, and read as IC50 after 18 and 48 hours.

[11] = test system: Staph. aureus (Leo CC 178B), fusidic acid sensitive strain; test: microbe, parasite or virus in culture; type: cell-based; details: Staphylococcus aureus, isolates from "Comp. of Ex 8 cult." (48 hours pretreatment)
[12] = test system: Staphylococcus aureus; test: In vitro effect of combination with fusidic acid, viable counts (Example 45); type: cell-based; details: 24 hours; for Viable count: 37° C, fusidic acid 1 μg/ml (tube a), isopropylthio compound 3 μg/ml (tube b), mixture 1 + 3 μg/ml (tube c), inoculum 1.4×10^4; for Resistance of surviving organisms to the compound / development of resistance: fusidic acid 1 μg/ml, isopropylthio compound 3 μg/ml, mixture 1 + 3 μg/ml
Experimental: In vitro-effect of the combination of fusidic acid and 3α,11α-dihydroxy-16β-isopropylthio-fusida-13(17),24-dien- 21-oic acid
To 3 tubes containing NIH broth was added:
a. The sodium salt of fusidic acid (1 μg/ml).
b. The sodium salt of 3α,11α-dihydroxy-16-isopropylthiofusida-13(17),24-dien-21-oic acid (3 μg/ml).
c. A mixture of the sodium salts of fusidic acid (1 μg/ml) and 3α,11α-dihydroxy-16-isopropylthiofusida-13(17),24-dien-21-oic acid (3 μg/ml).
The tubes were inoculated with Staphylococcus aureus to give 1.4×10^4 organisms per ml, incubated at 37° C for 24 hours, and the viable counts were determined.
as §1

[13] = Absorption from the gastro-intestinal tract; details: in vivo
[14] = test system: bacteria; test: In vitro investigations of antibacterial activity (general statements); type: cell-based
[15] = 18 h, isolates from control culture, inoculum 2.10^5 organisms/ml, NIH-broth, read-out: IC50, 18 hours
[16] = 48 h, isolates from control culture, inoculum 2.10^5 organisms/ml, NIH-broth, read-out: IC50, 48 hours
[17] = isolates from fusidic acid pretreated culture (48 hours pretreatment), read-out: IC50, 18 hours
[18] = isolates from fusidic acid pretreated culture (48 hours pretreatment), read-out: IC50, 48 hours

SMILES	IC50 [1]	IC50 [3]	IC50 [4]	IC50 [5]	Viable count after 0 hr [6]	Viable count after 1.5 hr ([6]; inoculum 9.2×10^4)	Viable count after 4 hr ([6]; inoculum 9.2×10^4)	IC50 [7]	IC50 [8]	IC50 [9]	IC50 [10, 15]	IC50 [10, 16]	IC50 [10, 17]	IC50 [10, 18]	IC50 ([11]; read-out: IC50, 18 hours)	IC50 ([11]; read-out: IC50, 48 hours)	Viable count [12]	Resistance of surviving organisms to the compound / development of resistance [12]	also measured
CC(C)=CCCC(C(=O)O)C1=C2C[C@@H](O)[C@H]3[C@@]4(C)CC[C@@H](O)[C@@H](C)[C@@H]4CC[C@]3(C)[C@@]2(C)C[C@@H]1Sc1ccccc1 (stereo partly drawn) [Example 1, 3α,11α-Dihydroxy-16β -phenylthiofusida-13(17), 24-dien-21-oic acid sodium salt]	0.5 µg/mL	1.6 µg/mL	20 µg/mL	1.6 µg/mL	9.2 × 10^4 organisms per ml	1.4 × 10^4 organisms per ml	5.7 × 10^2 organisms per ml	0.5 µg/mL	3.2 µg/mL	1.6 µg/mL									Viable counts after 6 1/2 hours ([2]; 37° C, inoculum 5.2 × 10^5): 1.1 × 10^4 organisms per ml; Viable counts after 2 hours ([2]; 37° C, inoculum 5.2 × 10^5): 5.2 × 10^4 organisms per ml; Viable counts after 24 hours ([2]; 37° C, inoculum 5.2 × 10^5): 3.1 × 10^6 organisms per ml; Resistance of surviving organisms to the compound / development of resistance ([2]; 96 hours): resistant to 3α,11α-dihydroxy-16β-phenylthio-fusida-13(17),24-dien-21- oic acid
CC(C)=CCCC(C(=O)O)C1=C2C[C@@H](O)[C@H]3[C@@]4(C)CC[C@@H](O)[C@@H](C)[C@@H]4CC[C@]3(C)[C@@]2(C)C[C@@H]1SC(C)C (stereo partly drawn) [Example 9, 3α,11α-dihydroxy-16β-isopropylthiofusida-13(17), 24-dien-21-oic acid sodium salt]											2 µg/mL	5 µg/mL	1.6 µg/mL	5 µg/mL	5 µg/mL	16 µg/mL	1.5 × 10^6 organisms per ml	resistant to 3α,11α-dihydroxy-16β-isopropylthio-fusida-13(17),24-dien- 21-oic acid	Emergence of resistance against fusidic acid / change of sensitivity after pretreatment ([10]; 48 hours pretreatment with subinhibitory concentrations, sodium salt): Only a slight decrease of the sensitivity; also recorded: totally prohibited the emergence of resistance against fusidic acid
CC(=O)O[C@H]1C[C@@]2(C)[C@@H](C[C@@H](O)[C@H]3[C@@]4(C)CC[C@@H](O)[C@@H](C)[C@@H]4CC[C@@]32C)/C1=C(\CCC=C(C)C)C(=O)O [Fusidic acid]	0.63 µg/mL (≈ 1.22 µM)	32 µg/mL (≈ 61.9 µM)	1.6 µg/mL (≈ 3.1 µM)	1.6 µg/mL (≈ 3.1 µM)				0.2 µg/mL (≈ 0.387 µM)	16 µg/mL (≈ 31 µM)	0.025 µg/mL (≈ 0.0484 µM)	0.016 µg/mL (≈ 0.031 µM)	1 µg/mL (≈ 1.94 µM)	7.9 µg/mL (≈ 15.3 µM)	50 µg/mL (≈ 96.8 µM)	0.016 µg/mL (≈ 0.031 µM)	0.02 µg/mL (≈ 0.0387 µM)		resistant to fusidic acid	Absorption from the gastro-intestinal tract (in words) [13]: absorbed efficiently from the gastro-intestinal tract; Antibacterial effect, bactericidal/bacteriostatic (in words) [14]: solely bacteriostatic
CC(=O)O[C@H]1C[C@@]2(C)[C@@H](C[C@@H](O)[C@H]3[C@@]4(C)CC[C@@H](O)[C@@H](C)[C@@H]4CC[C@@]32C)/C1=C(\CCC=C(C)C)C(=O)O [sodium salt of fusidic acid]					9.2 × 10^4 organisms per ml	1.2 × 10^5 organisms per ml	1.5 × 10^5 organisms per ml										1.8 × 10^8 organisms per ml		Viable count after 7 hr ([6]; inoculum 9.2×10^4): 1.3 × 10^5 organisms per ml
